# Data reported in US20110046127A1, “Imidazopyridazines for Use as Protein Kinase Inhibitors” (priority 2007, published 2011).
# Test system: T1, PIM-1 or PIM-2
# T1 construct: fused on or other part: C-terminal histidine tag (PIM-1 enzyme); N-terminal histidine tag (PIM-2 enzyme)
# Test: PIM-1 / PIM-2 biochemical assay (ADP Hunter assay kit)
# Design: species or system human
# Details: tested in either the PIM-1 or the PIM-2 biochemical assay (as appropriate); ATP 100 μM
# Excerpt: The biochemical assay to measure PIM-1 activity relies on the ADP Hunter assay kit (DiscoveRx Corp., Cat. # 90-0077), that determines the amount of ADP as direct product of the kinase enzyme activity.
# The enzyme has been expressed and purified in-house as a recombinant human protein with a C-terminal histidine tag. The protein is active and stable.
# (§1) Assay conditions were as indicated by the kit manufacturers with the following adaptations for the kinase activity step: • Kinase assay buffer and assay volume stay as recommended (15 mM HEPES, pH 7.4, 20 mM NaCl, 1 mM EGTA, 0.02% Tween 20, 10 mM MgCl2 and 0.1 mg/ml bovine γ-globulins/75 μl assay volume) • Incubation time and temperature: 60 min at 30° C. • PIM-1 concentration: 50 pg/μl • ATP concentration: 100 μM • PIM-1 substrate peptide: PIMtide (ARKRRRHPSGPPTA) • Peptide concentration: 60 μM • Positive control for kinase activity inhibition: 1-10 μM Staurosporine • DMSO concentration have to stay below 2% during the kinase reaction
# Assays were performed in either 96 or 384-well plates. The final outcome of the coupled reactions provided by the kit is the release of the fluorescent product Resorufin and has been measured with a multilabel HTS counter VICTOR V (PerkinElmer) using an excitation filter at 544 nm and an emission filter at 580 nm.
# The biochemical assay to measure PIM-2 activity relies on the ADP Hunter assay kit (DiscoveRx Corp., Cat. # 90-0077), that determines the amount of ADP as direct product of the kinase enzyme activity.
# The enzyme has been expressed and purified in-house as a recombinant human protein with a N-terminal histidine tag. The protein is active and stable.
# as §1, with “mg/ml bovine γ-globulins/20 μl assay” for “mg/ml bovine γ-globulins/75 μl assay”, “and temperature: 30 min at” for “and temperature: 60 min at”, “C. • PIM-2 concentration: 350” for “C. • PIM-1 concentration: 50”, “PIM-2 concentration: 350 pg/μl •” for “PIM-1 concentration: 50 pg/μl •”, “Peptide concentration: 100 μM •” for “Peptide concentration: 60 μM •”
row,IC50,Compound
1,2.22 µM,"Cc1cc2ncc(C#Cc3ccccc3)n2nc1NCc1ccc(Cl)c(Cl)c1 [Example 70, (3,4-Dichloro-benzyl)-(7-methyl-3-phenylethynyl-imidazo[1,2-b]pyridazin-6-yl)-amine]"
2,5.19 µM,"Cc1cc(NCc2ccc(Cl)c(Cl)c2)nn2c(C#Cc3ccccc3)cnc12 [Example 71, (3,4-Dichloro-benzyl)-(8-methyl-3-phenylethynyl-imidazo[1,2-b]pyridazin-6-yl)-amine]"
3,2.85 µM,"Clc1ccc(CNc2ccc3ncc(C#CCc4ccccc4)n3n2)cc1Cl [Example 73, N-(3,4-dichlorobenzyl)-3-(3-phenylprop-1-ynyl)imidazo[1,2-b]pyridazin-6-amine]"
4,4.55 µM,"Cc1nc2ccc(NCc3ccc(F)cc3)nn2c1C(=O)Nc1ccccc1 [Example 80, 6-(4-Fluoro-benzylamino)-2-methyl-imidazo[1,2-b]pyridazine-3-carboxylic acid phenylamide]"
5,8.87 µM,"COc1ccc(CNc2ccc3nc(C)c(C(=O)Nc4ccccc4)n3n2)cc1 [Example 81, 6-(4-Methoxy-benzylamino)-2-methyl-imidazo[1,2-b]pyridazine-3-carboxylic acid phenylamide]"
6,5.23 µM,"O=C(Nc1cnc2ccc(-c3ccccc3)nn12)c1ccccc1 [Example 84, N-(6-Phenyl-imidazo[1,2-b]pyridazin-3-yl)-benzamide]"
7,17.4 µM,"CCS(=O)(=O)Nc1cnc2ccc(-c3ccccc3)nn12 [Example 85, Ethanesulfonic acid (6-phenyl-imidazo[1,2-b]pyridazin-3-yl)-amide]"
8,14.5 µM,"O=S(=O)(Nc1cnc2ccc(-c3ccccc3)nn12)c1ccccc1 [Example 86, N-(6-Phenyl-imidazo[1,2-b]pyridazin-3-yl)-benzenesulfonamide]"
9,19 µM,"CCC(=O)Nc1cnc2ccc(NCc3ccc(F)cc3)nn12 [Example 89, N-[6-(4-Fluoro-benzylamino)-imidazo[1,2-b]pyridazin-3-yl]-propionamide]"
10,1.15 µM,"O=C(Nc1cnc2ccc(NCc3ccc(F)cc3)nn12)c1ccccc1 [Example 90, N-[6-(4-Fluoro-benzylamino)-imidazo[1,2-b]pyridazin-3-yl]-benzamide]"
11,0.31 µM,"COc1ccc(C(=O)Nc2cnc3ccc(NCc4ccc(F)cc4)nn23)cc1 [Example 91, N-[6-(4-Fluoro-benzylamino)-imidazo[1,2-b]pyridazin-3-yl]-4-methoxy-benzamide]"
12,4.65 µM,"O=C(Nc1cnc2ccc(Oc3ccccc3)nn12)c1ccccc1 [Example 98, N-(6-Phenoxy-imidazo[1,2-b]pyridazin-3-yl)-benzamide]"
13,19.1 µM,"COc1ccc(C(=O)Nc2cnc3ccc(-n4ccnc4)nn23)cc1 [Example 100, N-(6-Imidazol-1-yl-imidazo[1,2-b]pyridazin-3-yl)-4-methoxy-benzamide]"
14,0.41 µM,"O=C(Nc1cnc2ccc(NCc3ccc(F)cc3)nn12)c1ccc(O)cc1 [Example 101, N-[6-(4-Fluoro-benzylamino)-imidazo[1,2-b]pyridazin-3-yl]-4-hydroxy-benzamide]"
15,2.25 µM,"O=C(Nc1cnc2ccc(NCc3ccc(F)cc3)nn12)c1cccc(O)c1 [Example 102, N-[6-(4-Fluoro-benzylamino)-imidazo[1,2-b]pyridazin-3-yl]-3-hydroxy-benzamide]"
16,14.4 µM,"O=C(Nc1cnc2ccc(-n3ccnc3)nn12)c1ccc(O)cc1 [Example 103, 4-Hydroxy-N-(6-imidazol-1-yl-imidazo[1,2-b]pyridazin-3-yl)-benzamide]"
